Assay results as given in patent US20130344026A1, “Dimeric Smac Mimetics” (priority 2009, published 2013).
Read-outs that look alike come from different tables or passages of the source.

System: PANC-1 cells
Assay: cell viability assay in PANC-1 cells (compound alone, + 100 ng/ml TNFa, + 300 ng/ml TRAIL)
Format: cell-based
[1] = Homo sapiens, PANC-1, compound alone, Tables 6-10, read-out: IC50 (μM) in cell viability assay in PANC-1 cells: Compound alone
[2] = with 100 ng/ml TNFa, Tables 6-10, read-out: IC50 (μM) in cell viability assay in PANC-1 cells: Compound + 100 ng/ml TNFa
[3] = with 300 ng/ml TRAIL, Tables 6-10, read-out: IC50 (μM) in cell viability assay in PANC-1 cells: Compound + 300 ng/ml TRAIL
[4] = Homo sapiens, PANC-1, compound alone, Tables 15-18, read-out: IC50 (uM) in cell viability assay in PANC-1 cells: Cmpnd alone
[5] = with 100 ng/ml TNFa, Tables 15-18, read-out: IC50 (uM) in cell viability assay in PANC-1 cells: Cmpnd + 100 ng/ml TNFa
[6] = with 300 ng/ml TRAIL, Tables 15-18, read-out: IC50 (uM) in cell viability assay in PANC-1 cells: Cmpnd + 300 ng/ml TRAIL
[7] = Homo sapiens, PANC-1 cells, compound alone, read-out: IC50 (uM) in cell viability assay in PANC-1 cells, Cmpnd alone
[8] = PANC-1 cells, + 100 ng/ml TNFa, read-out: IC50 (uM) in cell viability assay in PANC-1 cells, Cmpnd + 100 ng/ml TNFa
[9] = PANC-1 cells, + 300 ng/ml TRAIL, read-out: IC50 (uM) in cell viability assay in PANC-1 cells, Cmpnd + 300 ng/ml TRAIL

| Structure (SMILES) | IC50 [1] | IC50 [2] | IC50 [3] | other results |
| --- | --- | --- | --- | --- |
| CN[C@@H](C)C(=O)N[C@H](C(=O)N1C[C@@H](NC(=O)c2cccc(C(=O)N[C@H]3C[C@@H](C(=O)N[C@H](C)Cc4ccccc4)N(C(=O)[C@@H](NC(=O)[C@H](C)NC)C(C)(C)C)C3)c2)C[C@H]1C(=O)NC(C)Cc1ccccc1)C(C)(C)C (stereo partly shown) [Compound 10] | > 1 µM | 0.065 µM | 0.085 µM |  |
| CN[C@@H](C)C(=O)N[C@H](C(=O)N1CCC[C@H]1C(=O)N[C@H]1c2ccccc2C[C@H]1OCCCCCCO[C@@H]1Cc2ccccc2[C@@H]1NC(=O)[C@@H]1CCCN1C(=O)[C@@H](NC(=O)[C@H](C)NC)C(C)(C)C)C(C)(C)C [Compound 120] | > 1 µM |  |  |  |
| CN[C@@H](C)C(=O)N[C@@H](CCCCNC(=O)c1cccc(C(=O)NCCCC[C@H](NC(=O)[C@H](C)NC)C(=O)N2CCC[C@H]2Cn2nnnc2Sc2ccccc2)c1)C(=O)N1CCC[C@H]1Cn1nnnc1Sc1ccccc1 [Compound 207] | > 1 µM | 0.263 µM | 0.398 µM |  |
| CN[C@@H](C)C(=O)N[C@@H](CCCCCC[C@H](NC(=O)[C@H](C)NC)C(=O)N1CCC[C@H]1CNC(=O)c1ccccc1)C(=O)N1CCC[C@H]1CNC(=O)c1ccccc1 [Compound 16] | > 1 µM | > 1 µM | > 1 µM |  |
| CN[C@@H](C)C(=O)N[C@H](C(=O)N1CCC[C@H]1c1nc(C(=O)NCCC#CC#CCCNC(=O)c2nc([C@@H]3CCCN3C(=O)[C@@H](NC(=O)[C@H](C)NC)C(C)(C)C)oc2-c2c[nH]c3ccccc23)c(-c2c[nH]c3ccccc23)o1)C(C)(C)C [Compound P4-24] |  |  |  | IC50 [4]: > 1 µM |
| CN[C@@H](C)C(=O)N[C@H](C(=O)N1C[C@@H](NC(=O)c2cc(C(=O)NCCN)cc(C(=O)N[C@H]3C[C@@H](C(=O)N[C@@H]4CCCc5ccccc54)N(C(=O)[C@@H](NC(=O)[C@H](C)NC)C(C)(C)C)C3)c2)C[C@H]1C(=O)N[C@@H]1CCCc2ccccc21)C(C)(C)C [Compound 126] | > 1 µM | 0.023 µM | 0.028 µM |  |
| CN[C@@H](C)C(=O)N[C@@H](CC#CC#CC[C@H](NC(=O)[C@H](C)NC)C(=O)N1CCC[C@H]1CNC(=O)c1ccccc1)C(=O)N1CCC[C@H]1CNC(=O)c1ccccc1 [Compound 14] | > 1 µM | > 1 µM | > 1 µM |  |
| CN[C@@H](C)C(=O)N[C@H](C(=O)N1CCC[C@H]1CN(CC#CC#CCN(CCc1ccccc1)C[C@@H]1CCCN1C(=O)[C@@H](NC(=O)[C@H](C)NC)C(C)(C)C)CCc1ccccc1)C(C)(C)C [Compound P4-20] |  |  |  | IC50 [4]: > 1 µM; IC50 [5]: 0.061 µM; IC50 [6]: 0.041 µM |
| CN[C@@H](C)C(=O)N[C@H](C(=O)N[C@@H](CCNC(=O)c1cc(N)cc(C(=O)N[C@H]2C[C@@H](C(=O)N[C@@H]3CCCc4ccccc43)N(C(=O)[C@@H](NC(=O)[C@H](C)NC)C(C)(C)C)C2)c1)C(=O)N[C@H](C)C(C)C)C(C)C [Compound 180] | > 1 µM | 0.124 µM | 0.201 µM |  |
| CN[C@@H](C)C(=O)NC(C(=O)N[C@@H](CCNC(=O)CCc1cn([C@H]2C[C@@H](C(=O)N[C@@H]3CCCc4ccccc43)N(C(=O)[C@@H](NC(=O)[C@H](C)NC)C(C)(C)C)C2)nn1)C(=O)N[C@H](C)c1ccccc1)C(C)(C)C (stereo partly shown) [Compound 197] | > 1 µM | 0.128 µM | 0.18 µM |  |
| CN[C@@H](C)C(=O)N[C@@H](C)C(=O)N[C@@H](CCNC(=O)c1cccc(C(=O)N[C@H]2C[C@@H](C(=O)N[C@@H]3CCCc4ccccc43)N(C(=O)[C@@H](NC(=O)[C@H](C)NC)C(C)(C)C)C2)c1)C(=O)N[C@H](C)c1ccccc1 [Compound 178] | > 1 µM | 0.054 µM | 0.089 µM |  |
| CN[C@@H](C)C(=O)N[C@@H](CCNC(=O)NCC[C@H](NC(=O)[C@H](C)NC)C(=O)N1CCC[C@H]1C(=O)N[C@@H]1CCCc2ccccc21)C(=O)N1CCC[C@H]1C(=O)N[C@@H]1CCCc2ccccc21 [Compound P2-39] |  |  |  | IC50 [4]: > 1 µM; IC50 [5]: 0.349 µM; IC50 [6]: 0.225 µM |
| CN[C@@H](C)C(=O)N[C@H](C(=O)N[C@@H](CCNC(=O)c1cccc(C(=O)N[C@H]2C[C@@H](C(=O)N[C@@H]3CCCc4ccccc43)N(C(=O)[C@@H](NC(=O)[C@H](C)NC)C(C)(C)C)C2)c1)C(=O)N[C@@H]1CCCc2ccccc21)C(C)C [Compound 170] | > 1 µM | 0.015 µM | 0.015 µM |  |
| CN[C@@H](C)C(=O)N[C@H](C(=O)N[C@@H](CCNC(=O)CC[C@H](NC(=O)[C@@H](NC(=O)[C@H](C)NC)C(C)(C)C)C(=O)N[C@@H]1CCCc2ccccc21)C(=O)N[C@H](C)C(C)C)C(C)C [Compound 166] | > 1 µM | 0.994 µM | > 1 µM |  |
| CN[C@@H](C)C(=O)N[C@H](C(=O)N1C[C@@H](NC(=O)c2cc(C(=O)N[C@H]3C[C@@H](C(=O)N[C@H](C)Cc4ccccc4)N(C(=O)[C@@H](NC(=O)[C@H](C)NC)C(C)(C)C)C3)[nH]n2)C[C@H]1C(=O)N[C@H](C)Cc1ccccc1)C(C)(C)C [Compound 11] | > 1 µM | 0.834 µM | 0.545 µM |  |
| CN[C@@H](C)C(=O)N[C@H](C(=O)N1C[C@@H](NC(=O)c2cccc(C(=O)N[C@H]3C[C@@H](C(=O)N[C@H](CO)c4ccccc4)N(C(=O)[C@@H](NC(=O)[C@H](C)NC)C(C)(C)C)C3)c2)C[C@H]1C(=O)N[C@H](CO)c1ccccc1)C(C)(C)C [Compound P3-99] |  |  |  | IC50 [7]: > 1 µM; IC50 [8]: 0.062 µM; IC50 [9]: 0.054 µM |
| CN[C@@H](C)C(=O)N[C@H](C(=O)N1CCC[C@H]1C(=O)N[C@H](C)c1ccccc1)[C@H](C)n1cc(CCCc2cn([C@@H](C)[C@H](NC(=O)[C@H](C)NC)C(=O)N3CCC[C@H]3C(=O)N[C@H](C)c3ccccc3)nn2)nn1 [Compound 115] | > 1 µM | 0.057 µM | 0.063 µM |  |
| CN[C@@H](C)C(=O)N[C@H](C(=O)N1CCCC1C(=O)N[C@H](COCC#CC#CCOC[C@@H](NC(=O)[C@H](C)NC(=O)[C@H](NC(=O)[C@@H](CO)NC)C1CCCCC1)C(C)C)C1CCCCC1)C(C)(C)C (stereo partly shown) [Compound H-8] |  |  |  | IC50 [4]: > 1 µM; IC50 [5]: 0.017 µM; IC50 [6]: 0.033 µM |
| CN[C@@H](C)C(=O)N[C@H](C(=O)N1C[C@@H](NC(=O)c2nc[nH]c2C(=O)N[C@H]2C[C@@H](C(=O)N[C@H](C)c3ccccc3)N(C(=O)[C@@H](NC(=O)[C@H](C)NC)C(C)(C)C)C2)C[C@H]1C(=O)N[C@H](C)c1ccccc1)C(C)(C)C [Compound P3-92] |  |  |  | IC50 [7]: > 1 µM; IC50 [8]: 0.099 µM; IC50 [9]: 0.072 µM |
| CN[C@@H](C)C(=O)N[C@H](C(=O)N1CCC[C@H]1Cn1cnnc1Cc1ccccc1)[C@@H](C)OCC#CC#CCO[C@H](C)[C@H](NC(=O)[C@H](C)NC)C(=O)N1CCC[C@H]1Cn1cnnc1Cc1ccccc1 [Compound 80] | > 1 µM | > 1 µM | > 1 µM |  |
| CN[C@@H](C)C(=O)N[C@H](C(=O)N1CCCC1C(=O)N[C@H](COCC#CC#CCOC[C@@H](NC(=O)[C@H](C)NC(=O)[C@H](NC(=O)[C@@H](C)NC)C1CCCCC1)C(C)C)C1CCCCC1)C(C)(C)C (stereo partly shown) [Compound 209] |  | 0.0007 µM | 0.0007 µM |  |
| CN[C@@H](C)C(=O)NC(C(=O)N1C[C@@H](NC(=O)c2cccc(C(=O)N[C@H]3CC(C(=O)N[C@H](CO)[C@H](O)c4ccccc4)N(C(=O)[C@@H](NC(=O)[C@H](C)NC)C(C)(C)C)C3)c2)CC1C(=O)N[C@H](CO)[C@@H](O)c1ccccc1)C(C)(C)C (stereo partly shown) [Compound 42] | > 1 µM | 0.753 µM | 0.645 µM |  |
| CN[C@@H](C)C(=O)N[C@H](C(=O)N[C@@H](CCNC(=O)CC[C@H](NC(=O)[C@@H](NC(=O)[C@H](C)NC)C(C)(C)C)C(=O)N[C@@H]1CCCc2ccccc21)C(=O)N[C@@H]1CCCc2ccccc21)C(C)(C)C [Compound 171] | > 1 µM | 0.044 µM | 0.063 µM |  |
| CN[C@@H](C)C(=O)Nc1nc(-c2ccccc2)c(C(=O)NCCc2cn([C@H]3C[C@@H](C(=O)N[C@@H]4CCCc5ccccc54)N(C(=O)[C@@H](NC(=O)[C@H](C)NC)C(C)(C)C)C3)nn2)s1 [Compound 196] | > 1 µM | 0.577 µM | 0.622 µM |  |
| CN[C@@H](C)C(=O)N[C@H](C(=O)N1CCC[C@H]1C(=O)N[C@H](C)c1ccccc1)[C@H](C)NC(=O)c1ccc(C(=O)N[C@@H](C)[C@H](NC(=O)[C@H](C)NC)C(=O)N2CCC[C@H]2C(=O)N[C@H](C)c2ccccc2)cc1 [Compound 114] | > 1 µM | 0.199 µM | 0.184 µM |  |
| CN[C@@H](C)C(=O)N[C@H](C(=O)N1C[C@@H](NC(=O)c2cccc(C(=O)N[C@H]3C[C@@H](C(=O)NCc4cccc5[nH]ccc45)N(C(=O)[C@@H](NC(=O)[C@H](C)NC)C(C)(C)C)C3)c2)C[C@H]1C(=O)NCc1cccc2[nH]ccc12)C(C)(C)C [Compound 7] | > 1 µM | 0.383 µM | 0.217 µM |  |
| CN[C@@H](C)C(=O)N[C@@H](CCCCNC(=O)NCCCC[C@H](NC(=O)[C@H](C)NC)C(=O)N1C[C@@H](Oc2ccccc2)C[C@H]1C(=O)N[C@@H]1CCCc2ccccc21)C(=O)N1C[C@@H](Oc2ccccc2)C[C@H]1C(=O)N[C@@H]1CCCc2ccccc21 [Compound P2-37] |  |  |  | IC50 [4]: > 1 µM; IC50 [5]: 0.174 µM; IC50 [6]: 0.527 µM |
| CN[C@@H](C)C(=O)N[C@@H](CC(=O)NCC[C@H](NC(=O)[C@@H](NC(=O)[C@H](C)NC)C(C)(C)C)C(=O)N[C@@H]1CCCc2ccccc21)C(=O)N1CCC[C@H]1C(=O)N[C@@H]1CCCc2ccccc21 [Compound 200] | > 1 µM | 0.046 µM | 0.084 µM |  |
